Earlier results, collected in patent US8946301B2, “Targeting of T-lymphocytes to treat amyotrophic lateral sclerosis” (ALS Therapy Development Institute, priority 2011, dated 2015).
Counter-ions that a name gives are not always drawn.

Key:
[1] = cited from earlier work
patients with ALS = details: Borras-Blasco et al. 1998; cited from earlier work
[2] = test system: peripheral blood mononuclear cells (lymphocytes and monocytes); details: published reports; cited from earlier work

Structure (SMILES): CCCCCCCCc1ccc(CCC(N)(CO)CO)cc1 [Fingolimod hydrochloride]
- solubility in 0.9% saline ([1]; 0.9% saline): soluble
- solubility in aqueous buffers at or above pH 3.0 ([1]; aqueous buffers, pH at or above 3.0): very slightly soluble or practically insoluble
- solubility in aqueous buffers at or below pH 2.0 ([1]; aqueous buffers, pH at or below 2.0): soluble
- solubility in water ([1]; water): > 10%

Structure (SMILES): Nc1nc2ccc(OC(F)(F)F)cc2s1 [Riluzole™]
- muscular strength of ALS patients (patients with ALS): does not appear to provide an improvement of muscular strength

Structure (SMILES): NC(CO)(CO)CCc1ccc(Sc2cccc(OCc3ccccc3)c2)cc1Cl [KRP-203, 2-amino-2-[2-[2-chloro-4-(3-phenylmethoxyphenyl)sulfanylphenyl]ethyl]propane-1,3-diol]
- lymphocyte homing into peripheral lymph nodes [2]: enhanced
- number of granulocytes [2]: not
- number of peripheral blood mononuclear cells (lymphocytes and monocytes) [2]: reduce the number
